One data set is described as follows: in vivo. As to conditions: male, beagle, dog, po, 175 mg.
The test system of a further data set is HIV-1 (IIIB). The data set is described as follows: microbe, parasite or virus in culture. In kind it is cell-based.
The next data set can be described thus: physchem. The following applies: 23 °C, thermodynamic from solid; for solubility thermodynamic at 24 h: FaSSIF.
Another data set can be described thus: in vitro. The following applies: human; for CC50 at 5 days: uninfected MT-4 cells.
[1] abbreviates: Human immunodeficiency virus 1, MT4, 120 h, HIV-1 (IIIB) replication in MT-4 cells, 5 days incubation, Cell Titer Glo, read-out: MT4 EC50.

In brackets after ≈: the same amount, converted by molar mass. Like-named read-outs stand apart in the source and are kept apart here.

This is an account of results in US20250127801A1, “BRIDGED TRICYCLIC CARBAMOYLPYRIDONE COMPOUNDS AND USES THEREOF” (priority 2023, published 2025).

As for `CC1=NO[C@@]2(CC[C@H](C)N3C[C@H]2n2cc(C(=O)NCc4ccc(F)cc4F)c(=O)c(O)c2C3=O)C1` [Intermediate B, (3′S,5S,7′R)—N-(2,4-difluorobenzyl)-12′-hydroxy-3,3′-dimethyl-1′,11′-dioxo-1′,4′,5′,11′-tetrahydro-3′H,4H,7′H-spiro[isoxazole-5,6′-[2,7]methanopyrido[1,2-a][1,4]diazonine]-10′-carboxamide], the bioavailability (usually dose-corrected exposure relative to a reference, in per cent) in “in vivo” came out at 15.6%.
Turning to `CC1=NO[C@@]2(CC[C@H](C)N3C[C@H]2n2cc(C(=O)NCc4ccc(F)cc4F)c(=O)c(OCOC(=O)N(C)c4ncccc4COC(=O)[C@@H](N)CCCCN)c2C3=O)C1` [Compound 10, (2-((((((3′S,5S,7′R)-10′-((2,4-difluorobenzyl)carbamoyl)-3,3′-dimethyl-1′,11′-dioxo-1′,4′,5′,11′-tetrahydro-3′H,4H,7′H-spiro[isoxazole-5,6′-[2,7]methanopyrido[1,2-a][1,4]diazonin]-12′-yl)oxy)methoxy)carbonyl)(methyl)amino)pyridin-3-yl)methyl L-lysinate], the EC50 (commonly the concentration needed to bring the measured effect to its halfway point) in the data set with HIV-1 (IIIB) (setting [1]) worked out at 3.19 nM. In the data set “physchem”, the solubility (thermodynamic) (as a rule, solubility found after equilibrating the solid with the medium) at 24 h was 3320 µg/mL (≈ 4.11 mM). The compound further came in with a CC50 at 5 days in “in vitro” of 10200 nM.
For the compound `CC1=NO[C@@]2(CC[C@H](C)N3C[C@H]2n2cc(C(=O)NCc4ccc(F)cc4F)c(=O)c(OCOC(=O)O[C@H]4CCCC[C@H]4COP(=O)(O)O)c2C3=O)C1` [Compound 53, (((3′S,5S,7′R)-10′-((2,4-difluorobenzyl)carbamoyl)-3,3′-dimethyl-1′,11′-dioxo-1′,4′,5′,11′-tetrahydro-3′H,4H,7′H-spiro[isoxazole-5,6′-[2,7]methanopyrido[1,2-a][1,4]diazonin]-12′-yl)oxy)methyl ((1S,2S)-2-((phosphonooxy)methyl)cyclohexyl) carbonate], the EC50 in the data set on HIV-1 (IIIB) (setting [1]) was 4.96 nM. The solubility (thermodynamic) at 24 h in “physchem” stood at 4680 µg/mL (≈ 6.22 mM). In addition, the CC50 at 5 days in the data set “in vitro” was 35700 nM.
On to `CC1=NO[C@@]2(CC[C@H](C)N3C[C@H]2n2cc(C(=O)NCc4ccc(F)cc4F)c(=O)c(OC(=O)N(C)c4ncc(C(=O)O)cc4CN(CC(=O)O)C(=O)OCOP(=O)(O)O)c2C3=O)C1` [Compound 8, 5-(((carboxymethyl)(((phosphonooxy)methoxy)carbonyl)amino)methyl)-6-(((((3′S,5S,7′R)-10′-((2,4-difluorobenzyl)carbamoyl)-3,3′-dimethyl-1′,11′-dioxo-1′,4′,5′,11′-tetrahydro-3′H,4H,7′H-spiro[isoxazole-5,6′-[2,7]methanopyrido[1,2-a][1,4]diazonin]-12′-yl)oxy)carbonyl)(methyl)amino)nicotinic acid], for which, in the data set with HIV-1 (IIIB) (Human immunodeficiency virus 1, IIIB, MT4, 120 h, read-out: MT4 EC50 (nM)), the EC50 is 0.982 nM. For the same compound, the solubility (thermodynamic) in “physchem” (fassif) worked out at 4800 µg/mL (≈ 5.3 mM). Further, the CC50 in “in vitro” was 10400 nM.
With `CC1=NO[C@@]2(CC[C@H](C)N3C[C@H]2n2cc(C(=O)NCc4ccc(F)cc4F)c(=O)c(OCOC(=O)N(C)C[C@@H]4CCCN4C(=O)OCOP(=O)(O)O)c2C3=O)C1` [Compound 14, (phosphonooxy)methyl (2S)-2-(((((((3′S,5S,7′R)-10′-((2,4-difluorobenzyl)carbamoyl)-3,3′-dimethyl-1′,11′-dioxo-1′,4′,5′,11′-tetrahydro-3′H,4H,7′H-spiro[isoxazole-5,6′-[2,7]methanopyrido[1,2-a][1,4]diazonin]-12′-yl)oxy)methoxy)carbonyl)(methyl)amino)methyl)pyrrolidine-1-carboxylate], the EC50 in the data set with HIV-1 (IIIB) (setting [1]) turned out to be 1.25 nM. Besides, the solubility (thermodynamic) at 24 h in “physchem” was found to be 5090 µg/mL (≈ 6.28 mM). In addition, in the data set “in vitro”, the CC50 at 5 days was 16800 nM.
On the same counts, the results for `CC1=NO[C@@]2(CC[C@H](C)N3C[C@H]2n2cc(C(=O)NCc4ccc(F)cc4F)c(=O)c(OCOC(=O)OCC4(COP(=O)(O)O)COC4)c2C3=O)C1` [Compound 56, (((3′S,5S,7′R)-10′-((2,4-difluorobenzyl)carbamoyl)-3,3′-dimethyl-1′,11′-dioxo-1′,4′,5′,11′-tetrahydro-3′H,4H,7′H-spiro[isoxazole-5,6′-[2,7]methanopyrido[1,2-a][1,4]diazonin]-12′-yl)oxy)methyl ((3-((phosphonooxy)methyl)oxetan-3-yl)methyl) carbonate] are 2.4 nM, 3560 µg/mL (≈ 4.81 mM) and 12800 nM.
Regarding `CCCCCCCCCCCCCC(=O)Oc1ccc(CC(=O)Oc2c3n(cc(C(=O)NCc4ccc(F)cc4F)c2=O)[C@@H]2CN(C3=O)[C@@H](C)CC[C@]23CC(C)=NO3)cc1` [Compound 96, [4-[2-[(1R,10S,13S)-4-[(2,4-difluorophenyl)methylcarbamoyl]-3′,10-dimethyl-5,8-dioxo-spiro[2,9-diazatricyclo[7.4.1.02,7]tetradeca-3,6-diene-13,5′-4H-isoxazole]-6-yl]oxy-2-oxo-ethyl]phenyl] tetradecanoate], in the data set on HIV-1 (IIIB) (setting [1]), the EC50 is 2.26 nM. This compound returned a thermodynamic solubility at 24 h in “physchem” of 13.5 µg/mL (≈ 0.0162 mM). This compound also registered a CC50 at 5 days in the data set “in vitro” of at least 50000 nM.
For the compound `CC1=NO[C@@]2(CC[C@H](C)N3C[C@H]2n2cc(C(=O)NCc4ccc(F)cc4F)c(=O)c(OCOC(=O)N(C)c4ncccc4COP(=O)(O)O)c2C3=O)C1` [Compound 2, (((3′S,5S,7′R)-10′-((2,4-difluorobenzyl)carbamoyl)-3,3′-dimethyl-1′,11′-dioxo-1′,4′,5′,11′-tetrahydro-3′H,4H,7′H-spiro[isoxazole-5,6′-[2,7]methanopyrido[1,2-a][1,4]diazonin]-12′-yl)oxy)methyl methyl(3-((phosphonooxy)methyl)pyridin-2-yl)carbamate], the EC50 with HIV-1 (IIIB) (setting [1]) was 1.49 nM. The compound further came in with a solubility (thermodynamic) at 24 h in “physchem” of 4950 µg/mL (≈ 6.51 mM). The compound also registered a CC50 at 5 days in “in vitro” of 10200 nM.
In the case of `COC1=NO[C@@]2(CC[C@H](C)N3C[C@H]2n2cc(C(=O)NCc4ccc(F)cc4F)c(=O)c(O)c2C3=O)C1` [Intermediate C, (3′S,5S,7′R)—N-(2,4-difluorobenzyl)-12′-hydroxy-3-methoxy-3′-methyl-1′,11′-dioxo-1′,4′,5′,11′-tetrahydro-3′H,4H,7′H-spiro[isoxazole-5,6′-[2,7]methanopyrido[1,2-a][1,4]diazonine]-10′-carboxamide], the bioavailability in “in vivo” was found to be 14.5%.
